We go through 3 compounds from patent publication US20170029388A1, “Treatment of Neurodegenerative Diseases with Asparagine Endopeptidase (AEP) Inhibitors and Compositions Related Thereto” (INTERCONTINENTAL GREAT BRANDS LLC, priority 2014, published 2017).

Structures are written as SMILES.

Series [1] can be described thus: Liver microsomal stability, human. The conditions noted are these: human liver microsomes; for Mean Remaining Parent (with NADPH): 30 min of incubation.
Series [2] addresses T1, AEP (Homo sapiens, UniProt Q99538).
T1 construct: tested with purified active AEP, IC50 values for the top 8 candidates were found; purchased Sino Biological
T1 sequence (Q99538 18-323 limits assumed): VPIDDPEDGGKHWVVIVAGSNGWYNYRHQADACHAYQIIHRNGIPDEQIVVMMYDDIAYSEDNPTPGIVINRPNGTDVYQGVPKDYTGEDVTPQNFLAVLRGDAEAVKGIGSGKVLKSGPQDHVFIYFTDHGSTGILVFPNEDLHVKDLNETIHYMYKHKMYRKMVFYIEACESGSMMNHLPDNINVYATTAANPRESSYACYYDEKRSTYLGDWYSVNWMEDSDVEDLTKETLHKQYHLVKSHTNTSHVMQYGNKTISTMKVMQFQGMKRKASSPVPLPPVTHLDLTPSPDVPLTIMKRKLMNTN
As to the kind of experiment: Enzyme inhibition assays (steady-state kinetics, Z-AAN-AMC). Format: biochemical. The note with it: for mode of inhibition: Michaelis-Menten plots; for inhibition constant KI: competitive inhibition fit. Here is the method:
KI values for each inhibitor were determined by global fits to the competitive inhibition equation. C. Time course inactivation assays were used to generate progress curves, depicting product formation as a function of time. […] E. Time course inactivation assays were used to generate progress curves, depicting product formation as a function of time. Pseudo first-order rate constants were obtained at each concentration of compound BB1. F. Re-plot of the pseudo first-order rate constants, kobs, vs. the concentration of compound BB1.
To continue to assess the mechanism utilized by the compounds to inhibit AEP, the inhibition kinetics were determined for compound, 11, as well as compound BB1, in an attempt to confirm that the thiol moiety is competitively inhibiting the enzyme. […] The resulting Michaelis-Menten plots for each compound seem be indicative of competitive inhibition. […] Since BB1 contains a thiol group, it can form a disulfide bond with the active-site cysteine of AEP. […] Additionally, plotting the pseudo-first-order rate constants of inhibition, kobs, which were determined from the progress curves, yielded a hyperbolic curve, consistent with a two-step mechanism of inactivation (FIG. 6D). […] However, the kobs versus inhibitor concentration plot yielded a straight line, maybe due to the rapid disulfide formation reaction (FIG. 6F).
To determine the inhibition constants and the mechanism by which compounds BB1, 11 and 38 inhibit AEP, the steady-state kinetic parameters for the hydrolysis of the peptide substrate, Z-AAN-AMC, was determined in the absence or presence of increasing concentrations of inhibitor. In these assays, specified concentrations of the inhibitor were pre-incubated with substrate for 10 min at 37° C., then 50 nM AEP was added to initiate the reaction, which was quenched after 10 min. The RFU values of the reaction product were converted to micromolar values with an AMC standard curve and the final reaction rates were plotted against substrate concentration and globally fit to equations representative of competitive inhibition (eq 1), noncompetitive inhibition (eq 2), mixed inhibition (eq 3) and uncompetitive inhibition (eq 4) using a nonlinear least fit squares approach by GraFit version 5.0.11. […]
ν=Vmax[S]/([S]+Km(1+[1]/Kis)) (eq 1), ν=Vmax[S]/([S](1+[1]/Kl)+Km(1+[1]/Ki)) (eq 2), ν=Vmax[S]/([S](1+[1]/Kii)+Km([…])) (eq 3), ν=Vmax[S]/([S](1+[1]/Kii)+Km) (eq 4).
In the equations, Kii is the intercept Ki, and Kis is the slope Ki. The mode of the inhibition induced by the compounds on AEP was determined by the best fit of the data to equations 1 -4. Visual inspection of the fits, and a comparison of the standard errors, was used to confirm these assignments.

The target of series [3] is CYP2C19 (Homo sapiens, UniProt P33261). As to the kind of experiment: CYP inhibition screening, CYP2C19. The series is classed as in vitro ADME.
For series [4], the system named is Cathepsin. As to the kind of experiment: OGD in primary neurons, Cathepsin activity. Format: cell-based. The note with it: 0.1 μM or 1.0 μM compound. Here is the method: A. AEP activity, measured in primary neuronal cultures with 5 μM Cbz-Ala-Ala-Asn-AMC (x-axis denotes neurons were treated with 0.1 μM or 1.0 μM specified compound). B. Caspase activity, measured in primary neuronal cultures with 5 μM Ac-Asp-Glu-Val-Asp-AMC. C. Cathepsin activity, measured in primary neuronal cultures with 5 μM D-Val-Leu-Lys-AMC. D. Inhibition of APP cleavage. Lysates of primary cortical neurons pre-incubated with compounds for 30 min, underwent OGD for 4 hrs, were reperfused for 18 hrs (normoxia neurons remained at normoxic conditions). E. APP can be cleaved in a dose-dependent manner. Lysates of primary cortical neurons pre-incubated with compounds for 30 min, underwent OGD for 4 hrs, were reperfused for 18 hrs (normoxia neurons remained at normoxic conditions).
Depriving cells of oxygen and glucose is a cellular model that is employed to trigger acidosis in cultured cells. The efficacy of the compounds in a cellular model of oxygen-glucose deprivation (OGD) was determined in an effort to mimic the effects of stroke in primary cultured neurons. As a result of depriving neurons of oxygen and glucose-containing medium, AEP activity was doubled (FIG. 7A, ‘DMSO-Norm’ compared to ‘DMSO-OGD’), while Caspase-3 and Cathepsin activities remained relatively unchanged. […]

Chain of CYP2C19 (P33261 whole entry, the tested form may be a part): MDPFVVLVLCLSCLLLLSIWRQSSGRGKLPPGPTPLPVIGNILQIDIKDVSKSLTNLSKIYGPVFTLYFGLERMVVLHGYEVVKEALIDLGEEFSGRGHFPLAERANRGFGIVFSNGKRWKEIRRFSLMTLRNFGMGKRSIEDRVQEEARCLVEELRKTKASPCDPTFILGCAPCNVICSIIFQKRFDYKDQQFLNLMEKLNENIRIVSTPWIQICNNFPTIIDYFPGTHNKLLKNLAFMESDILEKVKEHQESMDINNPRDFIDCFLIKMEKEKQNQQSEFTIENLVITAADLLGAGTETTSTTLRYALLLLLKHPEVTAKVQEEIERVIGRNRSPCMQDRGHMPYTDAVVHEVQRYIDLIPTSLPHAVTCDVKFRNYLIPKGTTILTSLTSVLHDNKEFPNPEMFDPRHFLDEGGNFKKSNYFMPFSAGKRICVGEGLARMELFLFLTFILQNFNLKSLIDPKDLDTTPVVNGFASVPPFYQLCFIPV

As for `Nc1ccc(N2CCOCC2)c2nonc12` [Compound 11], in series [1], the “Mean Remaining Parent (NADPH-free)” value is 93% and the “Mean Remaining Parent (with NADPH)” value was 76%. For the same compound, in series [2], the mode of inhibition entry is “competitive inhibitors” and the “inhibition constant KI” value was “nanomolar-range”. In series [3] (test concentration 3 μM), the “CYP inhibition, CYP2C19” value is 4.4%. The “CYP inhibition, CYP2C19” value in series [3] (test concentration 10 μM) stood at 6.8%. Besides, the “Cathepsin activity in OGD-treated neurons” value in series [4] is on record as “not observed”.

For `Sc1nnc(Nc2ccccc2)s1` [Compound BB1], in series [2], the mode of inhibition result is on record as “competitive inhibitors” and the “inhibition constant KI” value is recorded as “nanomolar-range”.

Regarding `Cn1c(=O)[nH]c(=O)c2c1nc(S)n2CC(O)COc1ccc(Cl)cc1` (stereo not shown) [Compound 38], in series [1], the “Mean Remaining Parent (NADPH-free)” value came out at 107% and the “Mean Remaining Parent (with NADPH)” value is 88%. The “CYP inhibition, CYP2C19” value in series [3] (test concentration 3 μM) is on record as −12.0%. Moreover, the “CYP inhibition, CYP2C19” value in series [3] (test concentration 10 μM) was 9.5%.
